Results taken from patent US20220411480A1, “ANTITUMOR PEPTIDE AND USE THEREOF” (TOAGOSEI CO., LTD, priority 2018, published 2022).
Residues, ends and D or L forms follow the SMILES beside them.

Tests used:
[1] = system: human melanoma (A2058) cell lines; assay: Antitumor activity evaluation test (1), cell viability by Cell Counting Kit-8 (WST-8); type: cell-based; conditions: 48 hours, A2058 versus normal MCF-12F cells
Description: (§1) The antitumor activity of the sample peptides synthesized in Test Example 1 was evaluated using human-derived cultured tumor cells as targets.
(§2) Specifically, currently commercially available human melanoma (A2058) cell lines were used as test tumor cells. In addition, a normal human mammary epithelial cell culture line (MCF-12F) was used for comparison. Here, culture solutions of respective cells are as follows. • (1) A2058 cells:
(§3) DMEM culture medium including 2 mM L-glutamine, 0.1 mM of non-essential amino acids, 50 units/mL of penicillin, 50 μg/mL of streptomycin, and 10% fetal bovine serum (FBS) (product, commercially available from Wako Pure Chemical Industries, Ltd.). • (2) MCF-12F cells:
(§4) DMEM/F12 culture medium including 20 ng/mL of recombinant EGF, 10 μg/mL of insulin, 0.5 μg/mL of hydrocortisone, and 10% FBS (product, commercially available from Wako Pure Chemical Industries, Ltd.).
(§5) A2058 cells and MCF-12F cells were cultured and prepared so that the number of cells per well in a 96-well plate was about 5×10^3. An amount of the culture medium in this case was 100 μL per well.
(§6) Next, the 96-well plate was placed in a CO2 incubator and pre-incubated under conditions of 37° C. and 5% CO2 for about 1 day (21 hours to 24 hours).
(§7) Then, peptide-containing test culture mediums for each concentration were prepared so that the concentrations of the sample peptides to be evaluated were 12.5 μM and 25 μM, and supplied to wells (that is, wells after the pre-incubation) in which 90μL of cells to be evaluated were cultured in each well. Then, the 96-well plate was returned to the CO2 incubator and incubated under conditions of 37° C. and 5% CO2 for 48 hours.
(§8) Here, the number of test wells (n) at peptide concentrations in peptide addition test groups was set to 3. Therefore, the value of the result shown in the following table is an average value of the results obtained in three test wells. First, the cell viability (%) was determined as follows.
(§9) After the incubation for 48 hours was completed, the culture medium in each well was replaced with 100 μL of a fresh culture medium containing no peptide, and additionally, 10μL of a cell proliferation measurement reagent “Cell Counting Kit-8” (product, commercially available from Dojindo Molecular Technologies, Inc.) containing a “water-soluble tetrazolium salt (WST-8)” as a coloring reagent was added to each well. Then, the 96-well plate was returned to the CO2 incubator and incubated under conditions of 37° C., and 5% CO2 for 1.5 hours to 2 hours.
(§10) After the incubation was completed, the cell culture solution to which the reagent was added was collected and the cell viability (%) was evaluated according to a colorimetric method in which an absorbance at a wavelength of 450 nm (value corrected by the absorbance at a wavelength of 650 nm: A450-A650) was measured based on the reduction of the tetrazolium salt. Specifically, a measured value (measured absorbance) of a comparative test group in which the above incubation was performed for 48 hours simply in a culture medium containing no peptide was set as a cell viability of 100%, and the cell viability (%) was calculated from the measured absorbance of each test cell line as a relative value.
(§11) Specifically, a value (value multiplied by 100 for convenience) obtained by dividing the cell viability of target tumor cells (here, A2058 cells) when the sample peptides were added at a concentration of 12.5 μM or 25 μM measured as described above by the cell viability of comparative normal cells (here, MCF-12F cells) measured under the same conditions, that is,
(§12) {(A2058 cell viability)/(MCF-12F cell viability)}×100 was calculated as a specific cell viability of the tumor cells, and the test tumor cells selective antitumor activity with respect to normal cells was evaluated using such a specific cell viability as an index.

[2] = as above; type: cell-based, human; conditions: peptide 25 μM, 48 hours, relative to culture medium containing no peptide = 100%; read-out: A2058 cell viability (survival rate)
Description: as §1, §2, §3, §4, §5, §6, §7, §8, §9, §10, §11, §12

Row | Structure (SMILES) | Specific cell viability {(A2058 cell viability)/(MCF-12F cell viability)}×100 ([1]; peptide 12.5 μM) | Specific cell viability {(A2058 cell viability)/(MCF-12F cell viability)}×100 ([1]; peptide 25 μM) | viability [2] [%]
1 | CC(C)C[C@H](NC(=O)CNC(=O)[C@H](CCC(=O)O)NC(=O)[C@H](CCCNC(=N)N)NC(=O)[C@H](CC(C)C)NC(=O)[C@H](Cc1ccccc1)NC(=O)[C@@H](N)Cc1c[nH]c2ccccc12)C(=O)N[C@@H](CC(C)C)C(=O)N[C@@H](Cc1ccccc1)C(=O)N[C@H](C(=O)N[C@@H](C)C(=O)N[C@@H](CC(C)C)C(=O)N[C@@H](C)C(=O)N[C@@H](C)C(=O)N[C@@H](CO)C(=O)N[C@H](C(=O)N[C@@H](Cc1ccccc1)C(=O)N[C@@H](CO)C(=O)N[C@@H](CC(C)C)C(=O)N[C@@H](CC(C)C)C(=O)N[C@@H](Cc1ccccc1)C(=O)N[C@@H](CCCNC(=N)N)C(=O)N[C@@H](CCCCN)C(=O)N[C@@H](CCCCN)C(=O)N[C@@H](CCCNC(=N)N)C(=O)N[C@@H](CCCNC(=N)N)C(=O)N[C@@H](CCC(N)=O)C(=O)N[C@@H](CCCNC(=N)N)C(=O)N[C@@H](CCCNC(=N)N)C(=O)N[C@@H](CCCNC(=N)N)C(N)=O)[C@@H](C)O)[C@@H](C)O [Sample 3] (H-WFLREGLLFTALAASTFSLLFRKKRRQRRR-NH2; N-terminus assumed) | 68.20 | 25.41 | 4.6
2 | CSCC[C@H](NC(=O)[C@H](C)N)C(=O)N[C@@H](Cc1ccc(O)cc1)C(=O)N[C@@H](CC(C)C)C(=O)N[C@@H](Cc1ccccc1)C(=O)N[C@@H](CC(C)C)C(=O)NCC(=O)N[C@@H](CC(N)=O)C(=O)N[C@@H](CC(C)C)C(=O)N[C@@H](C)C(=O)N[C@@H](C)C(=O)N[C@@H](CO)C(=O)N[C@@H](CC(=O)O)C(=O)N[C@@H](CC(C)C)C(=O)N[C@@H](CC(C)C)C(=O)N[C@@H](C)C(=O)NCC(=O)N[C@H](C(=O)N[C@@H](C)C(=O)N[C@@H](Cc1ccccc1)C(=O)N[C@H](C(=O)N[C@@H](C)C(=O)N[C@@H](CC(N)=O)C(=O)N[C@H](C(=O)N[C@@H](CC(C)C)C(=O)N[C@@H](CC(C)C)C(=O)N[C@@H](CO)C(=O)NCC(=O)N[C@@H](CO)C(=O)N[C@@H](CCCNC(=N)N)C(=O)N[C@@H](CCCCN)C(=O)N[C@@H](CCCCN)C(=O)N[C@@H](CCCNC(=N)N)C(=O)N[C@@H](CCCNC(=N)N)C(=O)N[C@@H](CCC(N)=O)C(=O)N[C@@H](CCCNC(=N)N)C(=O)N[C@@H](CCCNC(=N)N)C(=O)N[C@@H](CCCNC(=N)N)C(N)=O)[C@@H](C)O)C(C)C)C(C)C [Sample 1] (H-AMYLFLGNLAASDLLAGVAFVANTLLSGSRKKRRQRRR-NH2; N-terminus assumed) | 114.85 | 16.67 | 0.7
3 | CC[C@H](C)[C@H](NC(=O)[C@H](Cc1ccccc1)NC(=O)CNC(=O)[C@H](Cc1ccc(O)cc1)NC(=O)[C@@H](N)C(C)C)C(=O)NCC(=O)N[C@@H](CC(C)C)C(=O)N[C@@H](CS)C(=O)N[C@@H](Cc1c[nH]c2ccccc12)C(=O)N[C@@H](CC(C)C)C(=O)N[C@@H](CC(C)C)C(=O)N[C@@H](C)C(=O)N[C@@H](C)C(=O)N[C@@H](CC(C)C)C(=O)N[C@@H](CC(C)C)C(=O)NCC(=O)N[C@@H](CCSC)C(=O)N[C@@H](CC(C)C)C(=O)N1CCC[C@H]1C(=O)N[C@@H](CC(C)C)C(=O)N[C@@H](CC(C)C)C(=O)N[C@@H](CCCNC(=N)N)C(=O)N[C@@H](CCCCN)C(=O)N[C@@H](CCCCN)C(=O)N[C@@H](CCCNC(=N)N)C(=O)N[C@@H](CCCNC(=N)N)C(=O)N[C@@H](CCC(N)=O)C(=O)N[C@@H](CCCNC(=N)N)C(=O)N[C@@H](CCCNC(=N)N)C(=O)N[C@@H](CCCNC(=N)N)C(N)=O [Sample 4] (H-VYGFIGLCWLLAALLGMLPLLRKKRRQRRR-NH2; N-terminus assumed) | 46.80 | 35.10 | 5.3
4 | CC[C@H](C)[C@H](NC(=O)[C@H](C)NC(=O)[C@H](CC(C)C)NC(=O)[C@H](CC(C)C)NC(=O)[C@H](CO)NC(=O)[C@H](CC(C)C)NC(=O)[C@@H](NC(=O)[C@H](CO)NC(=O)[C@H](C)NC(=O)[C@@H](NC(=O)[C@H](CC(C)C)NC(=O)[C@H](C)NC(=O)[C@@H](NC(=O)[C@H](Cc1ccccc1)NC(=O)[C@@H](NC(=O)CNC(=O)CNC(=O)[C@@H](N)CCC(=O)O)C(C)C)C(C)C)[C@@H](C)O)C(C)C)C(=O)N[C@@H](C)C(=O)N[C@@H](CC(C)C)C(=O)N[C@@H](CCC(=O)O)C(=O)N[C@@H](CCCNC(=N)N)C(=O)N[C@@H](CCCCN)C(=O)N[C@@H](CCCCN)C(=O)N[C@@H](CCCNC(=N)N)C(=O)N[C@@H](CCCNC(=N)N)C(=O)N[C@@H](CCC(N)=O)C(=O)N[C@@H](CCCNC(=N)N)C(=O)N[C@@H](CCCNC(=N)N)C(=O)N[C@@H](CCCNC(=N)N)C(N)=O [Sample 5] (H-EGGVFVALTASVLSLLAIALERKKRRQRRR-NH2; N-terminus assumed) | 88.08 | 10.09 | 5.5
